Tested on: Acinetobacter baumannii ATCC17961
Experiment: Antimicrobial susceptibility testing: 90% growth inhibitory concentration (IC90) determination
Format: cell-based
Details: Acinetobacter baumannii, ATCC17961, 16 h, 90% growth inhibitory concentration against Acinetobacter baumannii ATCC17961, Iso-Sensitest broth, OD 600 nm over 16 h; read-out: ATCC 17961 IC90
How it was run: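 Twofold serial dilutions (e.g. 10 to 0.0195 μM final) in Iso-Sensitest broth inoculated at ~5×10^5 CFU/mL, incubated at 35±2° C. OD600 read every minute for 16 h; IC90 is the concentration inhibiting 90% of growth during logarithmic phase.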

| IC90 [nM] | Structure (SMILES) |
| --- | --- |
| 604 | Cn1c(-c2cn(-c3ccc4c(cc(C(=O)N5CCOCC5)n4C)n3)nc2C(F)(F)F)cnc1C(=O)Nc1ccc(C(=O)N2CCN(C(=O)[C@H]3CC[N@@+](CCCN)(CC(=O)O)CC3)CC2)c(Cl)c1 [Example 103, cis-2-[1-(3-aminopropyl)-4-[4-[2-chloro-4-[[1-methyl-5-[1-[1-methyl-2-(morpholine-4-carbonyl)pyrrolo[3,2-b]pyridin-5-yl]-3-(trifluoromethyl)pyrazol-4-yl]imidazole-2-carbonyl]amino]benzoyl]piperazine-1-carbonyl]piperidin-1-ium-1-yl]acetic acid;formate] |
| 783 | Cn1c(-c2cn(-c3ccc4c(cc(C(=O)NCCO)n4C)n3)nc2C(F)(F)F)cnc1C(=O)Nc1ccc(C(=O)N2CCN(C(=O)[C@H]3CC[N@@+](CCCN)(CC(=O)O)CC3)CC2)c(Cl)c1 [Example 104, cis-2-[1-(3-aminopropyl)-4-[4-[2-chloro-4-[[5-[1-[2-(2-hydroxyethylcarbamoyl)-1-methyl-pyrrolo[3,2-b]pyridin-5-yl]-3-(trifluoromethyl)pyrazol-4-yl]-1-methyl-imidazole-2-carbonyl]amino]benzoyl]piperazine-1-carbonyl]piperidin-1-ium-1-yl]acetic acid;chloride] |
| 525 | Cn1c(-c2cn(-c3ccc4[nH]c([C@H](O)CO)cc4n3)nc2C(F)(F)F)cnc1C(=O)Nc1ccc(C(=O)N2CCN(C(=O)[C@H]3CC[N@+](CC(=O)O)(CC4CNC4)CC3)CC2)c(Cl)c1 [Example 105, cis-2-[1-(azetidin-3-ylmethyl)-4-[4-[2-chloro-4-[[5-[1-[2-[(1S)-1,2-dihydroxyethyl]-1H-pyrrolo[3,2-b]pyridin-5-yl]-3-(trifluoromethyl)pyrazol-4-yl]-1-methyl-imidazole-2-carbonyl]amino]benzoyl]piperazine-1-carbonyl]piperidin-1-ium-1-yl]acetic acid;2,2,2-trifluoroacetate] |
| 611 | Cn1c(-c2cn(-c3ccc4[nH]c([C@@H](O)CO)cc4n3)nc2C(F)(F)F)cnc1C(=O)Nc1ccc(C(=O)N2CCN(C(=O)[C@H]3CC[N@+](CC(=O)O)(CC4CNC4)CC3)CC2)c(Cl)c1 [Example 106, cis-2-[1-(azetidin-3-ylmethyl)-4-[4-[2-chloro-4-[[5-[1-[2-[(1R)-1,2-dihydroxyethyl]-1H-pyrrolo[3,2-b]pyridin-5-yl]-3-(trifluoromethyl)pyrazol-4-yl]-1-methyl-imidazole-2-carbonyl]amino]benzoyl]piperazine-1-carbonyl]piperidin-1-ium-1-yl]acetic acid;chloride] |
| 175 | CNc1ccc(-n2cc(-c3cnc(C(=O)Nc4ccc(C(=O)N5CCN(C(=O)[C@H]6CC[N@+](CC(=O)O)(CC7CNC7)CC6)CC5)c(C)c4)n3C)c(C(F)(F)F)n2)c(F)c1 [Example 107, cis-2-[1-(azetidin-3-ylmethyl)-4-[4-[4-[[5-[1-[2-fluoro-4-(methylamino)phenyl]-3-(trifluoromethyl)pyrazol-4-yl]-1-methyl-imidazole-2-carbonyl]amino]-2-methyl-benzoyl]piperazine-1-carbonyl]piperidin-1-ium-1-yl]acetic acid;2,2,2-trifluoroacetate] |
| 58.7 | CNc1ccc(-n2cc(-c3cnc(C(=O)Nc4ccc(C(=O)N5CCN(C(=O)[C@H]6CC[N@+](CC(=O)O)(CC7CNC7)CC6)CC5)c(F)c4)n3C)c(C(F)(F)F)n2)c(F)c1 [Example 108, cis-2-[1-(azetidin-3-ylmethyl)-4-[4-[2-fluoro-4-[[5-[1-[2-fluoro-4-(methylamino)phenyl]-3-(trifluoromethyl)pyrazol-4-yl]-1-methyl-imidazole-2-carbonyl]amino]benzoyl]piperazine-1-carbonyl]piperidin-1-ium-1-yl]acetic acid; 2,2,2-trifluoroacetate] |
| 213 | CN(C)c1ccc(-n2cc(-c3cnc(C(=O)Nc4ccc(C(=O)N5CCN(C(=O)[C@H]6CC[N@+](CC(=O)O)(CC7CNC7)CC6)CC5)c(F)c4)n3C)c(C(F)(F)F)n2)c(F)c1 [Example 109, cis-2-[1-(azetidin-3-ylmethyl)-4-[4-[4-[[5-[1-[4-(dimethylamino)-2-fluoro-phenyl]-3-(trifluoromethyl)pyrazol-4-yl]-1-methyl-imidazole-2-carbonyl]amino]-2-fluoro-benzoyl]piperazine-1-carbonyl]piperidin-1-ium-1-yl]acetic acid; 2,2,2-trifluoroacetate] |
| 207 | Cc1cc(NC(=O)c2ncc(-c3cn(-c4ccc(O)cc4F)nc3C(F)(F)F)n2C)ccc1C(=O)N1CCN(C(=O)[C@H]2CC[N@@+](CCCN)(CC(=O)O)CC2)CC1 [Example 110, cis-2-[1-(3-aminopropyl)-4-[4-[4-[[5-[1-(2-fluoro-4-hydroxy-phenyl)-3-(trifluoromethyl)pyrazol-4-yl]-1-methyl-imidazole-2-carbonyl]amino]-2-methyl-benzoyl]piperazine-1-carbonyl]piperidin-1-ium-1-yl]acetic acid. 1:1 2,2,2-trifluoroacetate] |
| 185 | COCCNc1ccc(-n2cc(-c3cnc(C(=O)Nc4ccc(C(=O)N5CCN(C(=O)[C@H]6CC[N@+](CC(=O)O)(CC7CNC7)CC6)CC5)c(C)c4)n3C)c(C(F)(F)F)n2)c(F)c1 [Example 111, cis-2-[1-(azetidin-3-ylmethyl)-4-[4-[4-[[5-[1-[2-fluoro-4-(2-methoxyethylamino)phenyl]-3-(trifluoromethyl)pyrazol-4-yl]-1-methyl-imidazole-2-carbonyl]amino]-2-methyl-benzoyl]piperazine-1-carbonyl]piperidin-1-ium-1-yl]acetic acid;2,2,2-trifluoroacetate] |
| 356 | Cn1c(-c2cn(-c3cc4[nH]c(C(=O)N5C[C@H]6CNC[C@H]6C5)cc4cn3)nc2C(F)(F)F)cnc1C(=O)Nc1ccc(C(=O)N2CCN(C(=O)[C@H]3CC[N@+](CC(=O)O)(CC4CNC4)CC3)CC2)c(Cl)c1 [Example 112, cis-2-[4-[4-[4-[[5-[1-[2-[(3aS,6aR)-2,3,3a,4,6,6a-hexahydro-1H-pyrrolo[3,4-c]pyrrole-5-carbonyl]-1H-pyrrolo[3,2-c]pyridin-6-yl]-3-(trifluoromethyl)pyrazol-4-yl]-1-methyl-imidazole-2-carbonyl]amino]-2-chloro-benzoyl]piperazine-1-carbonyl]-1-(azetidin-3-ylmethyl)piperidin-1-ium-1-yl]acetic acid. 1:1 2,2,2-trifluoroacetate] |
| 707 | Cn1c(-c2cn(-c3cc4[nH]c(C(=O)N5CC6(CCOCC6)C5)cc4cn3)nc2C(F)(F)F)cnc1C(=O)Nc1ccc(C(=O)N2CCN(C(=O)[C@H]3CC[N@+](CC(=O)O)(CC4CNC4)CC3)CC2)c(Cl)c1 [Example 113, cis-2-[1-(azetidin-3-ylmethyl)-4-[4-[2-chloro-4-[[1-methyl-5-[1-[2-(7-oxa-2-azaspiro[3.5]nonane-2-carbonyl)-1H-pyrrolo[3,2-c]pyridin-6-yl]-3-(trifluoromethyl)pyrazol-4-yl]imidazole-2-carbonyl]amino]benzoyl]piperazine-1-carbonyl]piperidin-1-ium-1-yl]acetic acid. 1:1 2,2,2-trifluoroacetate] |
| 637 | Cn1c(-c2cn(-c3cc4[nH]c(C(=O)N5CCS(=N)(=O)CC5)cc4cn3)nc2C(F)(F)F)cnc1C(=O)Nc1ccc(C(=O)N2CCN(C(=O)[C@H]3CC[N@+](CC(=O)O)(CC4CNC4)CC3)CC2)c(Cl)c1 [Example 114, cis-2-[1-(azetidin-3-ylmethyl)-4-[4-[2-chloro-4-[[5-[1-[2-(1-imino-1-keto-1,4-thiazinane-4-carbonyl)-1H-pyrrolo[3,2-c]pyridin-6-yl]-3-(trifluoromethyl)pyrazol-4-yl]-1-methyl-imidazole-2-carbonyl]amino]benzoyl]piperazine-1-carbonyl]piperidin-1-ium-1-yl]acetic acid. 1:1 2,2,2-trifluoroacetate] |
| 295 | Cn1c(-c2cn(-c3cc4[nH]c(C(=O)NCCO)cc4cn3)nc2C(F)(F)F)cnc1C(=O)Nc1ccc(C(=O)N2CCN(C(=O)[C@H]3CC[N@+](CC(=O)O)(CC4CNC4)CC3)CC2)c(Cl)c1 [Example 115, cis-2-[1-(azetidin-3-ylmethyl)-4-[4-[2-chloro-4-[[5-[1-[2-(2-hydroxyethylcarbamoyl)-1H-pyrrolo[3,2-c]pyridin-6-yl]-3-(trifluoromethyl)pyrazol-4-yl]-1-methyl-imidazole-2-carbonyl]amino]benzoyl]piperazine-1-carbonyl]piperidin-1-ium-1-yl]acetic acid. 1:1 2,2,2-trifluoroacetate] |
| 213 | Cn1c(-c2cn(-c3cc4[nH]c(C(=O)N5CC6CNCC(C5)O6)cc4cn3)nc2C(F)(F)F)cnc1C(=O)Nc1ccc(C(=O)N2CCN(C(=O)[C@H]3CC[N@+](CC(=O)O)(CC4CNC4)CC3)CC2)c(Cl)c1 [Example 116, cis-2-[1-(azetidin-3-ylmethyl)-4-[4-[2-chloro-4-[[1-methyl-5-[1-[2-(9-oxa-3,7-diazabicyclo[3.3.1]nonane-3-carbonyl)-1H-pyrrolo[3,2-c]pyridin-6-yl]-3-(trifluoromethyl)pyrazol-4-yl]imidazole-2-carbonyl]amino]benzoyl]piperazine-1-carbonyl]piperidin-1-ium-1-yl]acetic acid. 1:1 2,2,2-trifluoroacetic acid. 1:1 2,2,2-trifluoroacetate] |
| 215 | Cn1c(-c2cn(-c3cc4[nH]c(C(=O)NCC(O)C(F)(F)F)cc4cn3)nc2C(F)(F)F)cnc1C(=O)Nc1ccc(C(=O)N2CCN(C(=O)[C@H]3CC[N@+](CC(=O)O)(CC4CNC4)CC3)CC2)c(Cl)c1 (stereo partly drawn) [Example 117, cis-2-[1-(azetidin-3-ylmethyl)-4-[4-[2-chloro-4-[[1-methyl-5-[1-[2-[(3,3,3-trifluoro-2-hydroxy-propyl)carbamoyl]-1H-pyrrolo[3,2-c]pyridin-6-yl]-3-(trifluoromethyl)pyrazol-4-yl]imidazole-2-carbonyl]amino]benzoyl]piperazine-1-carbonyl]piperidin-1-ium-1-yl]acetic acid. 1:1 2,2,2-trifluoroacetate] |
